Measured values as given in publication PMC4428071, “Structural basis for epitope masking and strain specificity of a conserved epitope in an intrinsically disordered malaria vaccine candidate” (Scientific Reports, 2015).

Columns and labels:
mAb 6D8 = assay: SPR binding of synthetic MSP2 peptides to immobilized (captured) mAb 6D8; set-up: species or system mouse; details: for Kd: Biacore T200, mAb 6D8 captured with Mouse Antibody Capture kit, peptides in 20 mM HEPES, 150 mM NaCl, 3 mM EDTA, 0.05 % Tween20, pH 7.4, from concentration dependence of steady-state responses, ± standard deviation of three replicate experiments; for Binding to immobilized mAb 6D8 (in words): at up to 1 μM peptide concentration
Description: To explore the structural basis of epitope masking, it was necessary to first define the minimal epitope of mAb 6D8. […]
(§1) mM scale) using a three-fold equivalent of FMOC-protected amino acid, HCTU and DIPEA in DMF per cycle. Each amino acid coupling was carried out for 30 min at room temperature with continuous shaking. Chain deprotection was carried out in 50% piperidine in DMF for 2 min. Each step in the cycle was terminated with an extensive DMF wash. Peptides were N-terminally acetylated after the last coupling and deprotected, using a three-fold equivalent of acetic anhydride and Dipea in DMF.
The fully assembled peptides were dried under vacuum and cleaved for 3 h in a mixture of TFA:TIPS:water (95:2.5:2.5 v/v). The cleaved material was precipitated in cold diethyl ether overnight at -20 °C. T he insoluble peptide material was spun down at 4,000 rpm for 30 min at 4 °C and the pellet washed twice in cold diethyl ether prior to removal of the organic phase.
The crude peptide mixture was resuspended in 50% acetonitrile/0.1% TFA, filtered and freeze-dried prior to HPLC purification.
2 mg/mL for HPLC purification. […]
linear gradient of 5 to 40% of solvent B (90% acetonitrile / 9.9% water / 0.1% TFA) against solvent A (0.1% TFA in water) over 40 min. […]
mass spectrometry (LC-MS).
Affinity measurements. […]
Where low peptide solubility precluded ITC measurements, affinity was estimated by surface plasmon resonance (SPR) (Biacore T200, GE Healthcare) using a Mouse Antibody Capture kit (GE Healthcare). Synthetic peptides were resuspended in running buffer (20 mM HEPES, 150 mM NaCl, 3 mM EDTA, 0.05 % Tween20, pH 7.4) and injected over the 6D8-captured

[1] = Aggregation tendency of peptides on resuspension for HPLC purification; format: physicochemical; details: crude peptide resuspended for HPLC purification; had to be resuspended in 10 mM acetic acid at 1 mg/mL
Description: as §1
The fully assembled peptides were dried under vacuum and cleaved for 3 h in a mixture of TFA:TIPS:water (95:2.5:2.5 v/v). The cleaved material was precipitated in cold diethyl ether overnight at -20 °C. […]
MSP2 peptides were purified on a reverse-phase C18 column (Zorbax, 10 x 300 mm) using a linear gradient of 5 to 40% of solvent B (90% acetonitrile / 9.9% water / 0.1% TFA) against solvent A (0.1% TFA in water) over 40 min. The purity of MSP2 peptides was assessed by mass spectrometry (LC-MS).
Affinity measurements. Binding affinity constants of 6D8 antibodies (IgG and scFv) for synthetic peptides and recombinant allelic forms of MSP2 were determined by isothermal titration calorimetry (Microcal ITC-200, GE Healthcare) using either murine mAb 6D8 produced and affinity-purified by the Walter and Eliza Hall Institute antibody facility3 or 6D8 scFv. […]

| Substance | Kd (mAb 6D8) | Binding to immobilized mAb 6D8 (in words) (mAb 6D8) | Tendency to aggregate [1] |
| --- | --- | --- | --- |
| Ac-AYNMSIRR-NH2 [MSP2_15-22] | 87 ± 21 nM | detectable binding | – |
| Ac-AYNMSIRRS-NH2 [MSP2_15-23] | 34 ± 12 nM | – | – |
| Ac-FINNAYNMSIRRS-NH2 [MSP2_11-23] | 6 ± 3 nM | – | – |
| Ac-NAYNMSIRR-NH2 [MSP2_14-22] | 6 ± 2 nM | – | – |
| INNAYNMS [MSP2_12-19, N-acetylated, C-amidated synthetic peptide, residues 12-19 of MSP2] | – | – | high tendency |
| NAYNMSIR [MSP2_14-21, N-acetylated, C-amidated synthetic peptide, residues 14-21 of MSP2] | – | abolishes binding | – |
| NNAYNMSI [MSP2_13-20, N-acetylated, C-amidated synthetic peptide, residues 13-20 of MSP2] | – | – | high tendency |
| YNMSIRRS [MSP2_16-23, N-acetylated, C-amidated synthetic peptide, residues 16-23 of MSP2] | – | abolishes binding | – |
